Among the test systems are MCF7 breast; HS 578T breast; PC-3 prostate; MDA-MB-435; T-47D breast.
Test in all cases: NCI-60 cell line screen, 48 h

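Results reflect a 48-hour exposure of cells in 96-well plates to compound at five concentrations. Abbreviation: GI50, concentration required for 50% inhibition of growth. The concentration for full growth arrest is given as TGI.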

In the case of `COc1ccc(CCN2CCc3c(C)c(C#N)c4nc5ccccc5n4c32)cc1OC`, the TGI in the assay with MCF7 breast was greater than 100 µM; in the assay on HS 578T breast, 60.6 µM; in the assay on PC-3 prostate it was greater than 100 µM; with MDA-MB-435, 45 µM.
Take `CSc1ccc(C(=O)C(=O)c2ccc(SC)s2)s1`: the TGI in the assay on MCF7 breast, with T-47D breast, in the assay on HS 578T breast, with PC-3 prostate and with MDA-MB-435 was greater than 10 µM throughout.
For `CC(=O)N(Cc1ccccc1)c1ccccc1I(=O)=O`, the GI50 was 16.5 µM in the assay with MCF7 breast, 36.1 µM with T-47D breast, greater than 100 µM in the assay on HS 578T breast and 49.9 µM in the assay with MDA-MB-435. Moreover, the TGI with MCF7 breast was 40.5 µM; in the assay on T-47D breast, greater than 100 µM; in the assay on HS 578T breast, greater than 100 µM; in the assay with MDA-MB-435, greater than 100 µM.
As to `Cc1cc(Cl)ccc1Nc1nc(C(F)(F)F)ccc1C(=O)N1CCN(c2cccc(Cl)c2)CC1`, the GI50 in the assay with MCF7 breast was 25.6 µM; in the assay on T-47D breast it was greater than 100 µM; in the assay on HS 578T breast it was 3.89 µM; with PC-3 prostate it was 7.56 µM; in the assay on MDA-MB-435, greater than 100 µM. The TGI in the assay with MCF7 breast, in the assay on T-47D breast, in the assay with HS 578T breast, in the assay on PC-3 prostate and in the assay with MDA-MB-435 was greater than 100 µM throughout.
For the compound `C#CCN(Cc1ccc2nc(N)[nH]c(=O)c2c1)c1ccc(C(=O)NC(CCC(=O)O)C(=O)O)cc1` (stereo not drawn), the TGI in the assay on MCF7 breast, with T-47D breast, in the assay with PC-3 prostate and with MDA-MB-435 was greater than 100 µM each time.
For `O=c1[nH]c2ccccc2n1-c1n[nH]c2ccccc12`, the GI50 with MCF7 breast is 20.1 µM; in the assay with T-47D breast it was 29.5 µM; in the assay on HS 578T breast it was 23 µM; with PC-3 prostate, 18.1 µM; with MDA-MB-435 it was 23.7 µM. The TGI with MCF7 breast was greater than 100 µM; with T-47D breast, 98.2 µM; in the assay on HS 578T breast it was greater than 100 µM; with PC-3 prostate, greater than 100 µM; in the assay with MDA-MB-435, 57.4 µM.
`COc1cc(NC(=O)Nc2cnc(Nc3ccc(N4CCOCC4)cc3)nc2Oc2cccc(OC)c2)cc(OC)c1`: the GI50 in the assay with MCF7 breast was 1.92 µM; in the assay with T-47D breast, 2.14 µM; with HS 578T breast, 1.97 µM; in the assay with PC-3 prostate it was 3.16 µM; in the assay on MDA-MB-435 it was 1.99 µM. The TGI in the assay on MCF7 breast is 18.8 µM; in the assay on T-47D breast, greater than 50 µM; in the assay with HS 578T breast it was 20.6 µM; with PC-3 prostate, 23.7 µM; with MDA-MB-435, 11.5 µM.
`COC1(OC)c2no[n+]([O-])c2C(OC)(OC)c2c1no[n+]2[O-]`: the TGI in the assay with MCF7 breast was 42.7 µM; with T-47D breast it was greater than 100 µM; with HS 578T breast, 97.7 µM; in the assay on PC-3 prostate, 66.6 µM; in the assay with MDA-MB-435, 36.2 µM.
Take `CC(=O)Oc1ccc(/C=N/NC(N)=S)nc1`: the GI50 in the assay on MCF7 breast was 2.13 µM; in the assay with T-47D breast, 5.39 µM; with PC-3 prostate, 5.28 µM; with MDA-MB-435 it was 5.14 µM. The TGI with MCF7 breast, with T-47D breast, in the assay on PC-3 prostate and in the assay on MDA-MB-435 was greater than 100 µM each time.
For `N#CC1C=Cc2ccccc2N1C(=O)Oc1ccccc1` (stereo not drawn), the TGI in the assay with MCF7 breast was greater than 100 µM; in the assay with T-47D breast it was greater than 100 µM; with HS 578T breast it was greater than 100 µM; with PC-3 prostate, greater than 100 µM; in the assay with MDA-MB-435, 58.7 µM.
`CC1COCC(C)N1C1=C(Cl)C(=O)c2ccccc2C1=O` (stereo not drawn): the GI50 in the assay with MCF7 breast is 1.67 µM; in the assay with HS 578T breast it was 6.38 µM; in the assay with PC-3 prostate, 3.92 µM; in the assay on MDA-MB-435, 1.35 µM. Moreover, the TGI with MCF7 breast turned out to be 3.76 µM; in the assay on HS 578T breast it was 50.5 µM; in the assay on PC-3 prostate it was 17.8 µM; with MDA-MB-435, 2.73 µM.
Take `CC1=C(C(=O)Nc2ccc(Cl)c(Cl)c2)C(c2ccccc2O)NC(=O)N1` (stereo not drawn): the GI50 in the assay with T-47D breast is greater than 50 µM; in the assay with HS 578T breast, 32.2 µM; with PC-3 prostate, 33.7 µM; with MDA-MB-435 it was 27.4 µM. In addition, the TGI with T-47D breast, in the assay on HS 578T breast, with PC-3 prostate and in the assay with MDA-MB-435 was greater than 50 µM in each case.
As for `COc1cccc(/C=C/C(=O)c2cc3c(N)c(C(=O)Nc4cccc5ccccc45)sc3nc2C)c1`, the figures for the GI50 in the assay on MCF7 breast, in the assay with T-47D breast and in the assay with PC-3 prostate were 0.339 µM, 1.22 µM and 1.48 µM, respectively. Moreover, the TGI in the assay on MCF7 breast was greater than 50 µM; in the assay on T-47D breast, 4.45 µM; with PC-3 prostate it was 6.22 µM.
With `C=[CH][Sn]([CH]=C)([O]c1cccc2cccnc12)[O]c1cccc2cccnc12`, the GI50 with MCF7 breast is 3.11 µM; in the assay with PC-3 prostate it was 3.85 µM; in the assay with MDA-MB-435, 7.86 µM. For the same compound, the TGI amounted to 12.6 µM in the assay with MCF7 breast, 29.7 µM with PC-3 prostate and 40.8 µM in the assay with MDA-MB-435.
Regarding `CC1CCC2N(C1)CC1C3(O)CC45OC6(O)C(O)CCC4(C)C6CCC5C3(O)CC(O)C1(O)C2(C)O` (stereo not drawn), the TGI with MCF7 breast, in the assay on T-47D breast, with HS 578T breast, with PC-3 prostate and in the assay on MDA-MB-435 was greater than 100 µM throughout.
As for `COc1cccc(C2NC(=S)NC(C)=C2C(=O)Nc2ccc(Cl)c(Cl)c2)c1` (stereo not drawn), the GI50 was 14.4 µM in the assay on T-47D breast, 10.7 µM in the assay with HS 578T breast, 14.3 µM with PC-3 prostate and 8.22 µM in the assay with MDA-MB-435. Also, the TGI is greater than 50 µM with T-47D breast, 28.8 µM with HS 578T breast, greater than 50 µM in the assay with PC-3 prostate and 16.8 µM with MDA-MB-435.
For the compound `O=C(NCCCCCCCNC(=O)OCc1ccc2c(Cl)cc(Cl)c(O)c2n1)OCc1ccc2c(Cl)cc(Cl)c(O)c2n1`, the GI50 is 1.33 µM with T-47D breast, 1.4 µM with HS 578T breast, 0.625 µM with PC-3 prostate and 0.297 µM with MDA-MB-435. Moreover, the TGI with T-47D breast is 3.95 µM; with HS 578T breast it was 5.35 µM; in the assay on PC-3 prostate it was 2.16 µM; with MDA-MB-435, 0.931 µM.
As for `CO[C@@]12[C@@H]3NC3CN1C1=C(C(=O)C(N)=C(C)C1=O)[C@@H]2COC(N)=O` (stereo partly drawn), the GI50 with MCF7 breast was 0.0809 µM; in the assay with T-47D breast, 1.67 µM; in the assay on HS 578T breast it was 6.32 µM; with PC-3 prostate, 2.02 µM; in the assay on MDA-MB-435 it was 1.13 µM. Moreover, the TGI in the assay with MCF7 breast was 7.55 µM; in the assay with T-47D breast, 54.5 µM; in the assay with HS 578T breast it was greater than 100 µM; in the assay with PC-3 prostate it was 37.1 µM; in the assay with MDA-MB-435 it was 8.3 µM.

Source of the values: PubChem BioAssay (NCI).
